Data on one compound can be found in paper PMC10887214 (Biomedicines, 2024).

The test system of one assay is chimeric CB1/2 receptor. Nature of the assay: Two-electrode voltage-clamp, chimeric CB1/2-GIRK1/GIRK2-RGS4 coupling system expressed in oocytes. Particulars: WIN55,212-2 concentration–response. (Two-electrode voltage clamp holds a large cell at a set potential and records current.)
The test system of assay [1] is C57BL/6J mice. The assay can be described thus: Morris Water Maze (MWM). It counts as in vivo, mouse. Conditions: i.p., WIN 0.5 mg/kg. How it is done: (§1) Animal housing. Forty-eight Male C57BL/6J mice were purchased from Janvier Labs (Le Genest-Saint-Isle, France) and were time-specifically housed in a 12 h light-dark cycle (lights on at 7 am), with ad libitum water and food in conditioned rooms (22 °C, humidity ~60%).
(§2) Behavior assays. All mice were subjected to a behavioral test battery that consisted of several general performance tasks of locomotor activity, exploratory and anxiety-like behavior, and learning and memory. Mice were divided into four groups: Vehicle, OS (2 mg/kg), WIN55 (0.5 mg/kg), or OS + WIN. Each group consisted of 7–14 mice that received two i.p injections before each test, with a 10 min interval between each injection. Veh + Veh were injected with PBS. Veh + WIN were injected with PBS and WIN55. Veh + OS were injected with PBS and OS. OS + WIN were injected with OS and WIN55. PBS was used as vehicle as it was used for dilution of drugs. Tests were performed in the order described below after 10 min of the last injection, with a 24 h interval between each test.
Morris Water Maze (MWM): MWM [32] was used to assess the effects of OS, WIN, and OS + WIN in memory one day after the EPM test. MWM is a gold standard test to assess learning and memory consisting of 10 days of training and two probe trials in a pool with water at a temperature of 26 °C, with one submersed platform invisible to mice. Each mouse could try to find the platform for 100 s, four times per day, with an inter-trial interval of 15–30 min. In each trial, animals were released randomly from each of the four starting positions. This protocol of training was repeated for ten days (training sessions). The platform was removed on the 6th and 11th days, and the animals were left free to swim for 100 s (probe trials). Right after the first probe trial (day 6), animals were trained again with the platform at the same place. During the training sessions, the mean latency to find the platform for the session was calculated for each animal as the average of the four trials of the day. During the probe trials, the pool was divided into four equal virtual quadrants, and the time spent in the target quadrant (TQ) (i.e., the quadrant where the platform was located during the training sessions) was assessed as a measure of memory retention. For this test, we used Veh (n = 9), OS (n = 8), WIN (n = 8), OS + WIN (n = 14).

The subject of assay [2] is C57BL/6J mice. Nature of the assay: Open Field (OF). Particulars: i.p., WIN 0.5 mg/kg. It counts as in vivo, mouse. The protocol: as §1, §2
Open Field (OF): One day after the cage activity test, mice were tested in the OF paradigm. The OF aimed to test the OS, WIN, and OS + WIN effect on animal locomotion and exploratory behavior. Animals were placed in the test room one hour before starting the test. For the OF, animals were placed in a plexiglass box (60 × 60 × 60 cm) divided into three zones (center, periphery, and corners) for 10 min and left free to explore. Total distance and time in zones were counted. Here, more time in the center meant an anxiolytic effect, and a higher distance walking meant an increase in locomotor activity. For this test, we used Veh (n = 8), OS (n = 10), WIN (n = 7), OS + WIN (n = 8).

Assay [3] has as its system C57BL/6J mice. Nature of the assay: Home cage activity test. Particulars: i.p., OS 2 mg/kg, WIN 0.5 mg/kg, 21 h. The format is in vivo, mouse. The protocol:
as §1, §2
Cage activity assessment: At P60, animals were moved to the cage activity room for one hour before injections for habituation.. The cage activity assessment consists of placing the mice in a transparent box which is placed between three infrared sensors (two on the cage’s side and one in its front) that count how many times the mice cross the infrared beams. The times of beams crossed in each 30 min were counted over a period of 24 h and used as a locomotor activity measurement. In addition, we also compared the total number of beams crossed during the day and night period. For this test, we used Veh (n = 10), OS (n = 9), WIN (n = 11), OS + WIN (n = 8).

The structures appear in SMILES notation.

Regarding `Cc1c(C(=O)c2cccc3ccccc23)c2cccc3c2n1[C@H](CN1CCOCC1)CO3` [WIN55,212-2, reference compound], the Receptor activation result with chimeric CB1/2 receptor is “activated by WIN55,212-2 in a concentration-dependent manner”. For the same compound, the “Time to find the platform in training sessions vs control” value in the assay with C57BL/6J mice [1] (OS 2 mg/kg, days 3, 4, 5, 6 and 8) was “performed significantly worse than the control”. The “Time spent in the target quadrant (TQ), first probe trial” value with C57BL/6J mice [1] is ~ 25%. Moreover, the “Total distance walked in open field (locomotion)” value in the assay on C57BL/6J mice [2] (OS 2 mg/kg, 10 min test) was “neither OS nor WIN affected locomotion”. The “Time spent in the periphery of open field compared to the control” value in the assay with C57BL/6J mice [2] is “spent less time in the periphery”. The “Cage activity (beam crossings) 2 h after the beginning of night phase” value in the assay with C57BL/6J mice [3] is given as “did not change the activity”.
